This test relates to PANC-1 cells. In words: Inhibition of PANC-1 proliferation by oxythiamine (MTS assay). The class given is cell-based. The note with it: oxythiamine 0.5 mM, 72 h. As for the experimental part:
FIG. 35 depicts inhibition of pancreatic cancer PANC-1 cell proliferation by incubation with the transketolase inhibitor, oxythiamine (0.5-2 mM) for 72 h in accordance with an embodiment of the present invention. Proliferative rates were measured using the MTS proliferation assay.
The inventors believe that fructose-treatment of pancreatic cancer cells led to an increase in TKK-driven nucleic acid synthesis, and thus fructose-treatment would result in an increase in either PANC-1 TKK expression and/or activity in comparison to equivalent glucose concentrations. Western blot analysis on protein lysates derived from fructose-, and glucose-treated PANC-1 cells were performed (5.5 mM fructose, and glucose for 24, and 48 h as per previous protocol) using a specific TKK antibody, and compared TKK expression in the fructose-, and glucose-treated PANC-1 cells. As depicted in FIG. 33, TKK expression at 24 h, and 48 h in protein lysates derived from 5.5 mM glucose-treated PANC-1 cells was increased in comparison to expression in 2 mM glucose-treated cells. […] After gentle mixing the absorbance of the mixture was measured at 10 min intervals for 2 h at 340 nm. Transketolase activity was then derived from the difference in absorbance at 10, and 80 minutes, and expressed as nmol/min/million cells. […] Pancreatic cancer proliferation rates were then measured using the MTS assay (FIG. 35). […]

Entries after “also recorded” stand apart in the source; their conditions may differ.

For `Cc1ncc(C[n+]2csc(CCO)c2C)c(=O)[nH]1` [oxythiamine], the “effect on glucose-induced and fructose-induced PANC-1 proliferation” value is “inhibited glucose-induced and fructose-induced PANC-1 proliferation”. Besides, the “effect on fructose-mediated increase in pancreatic cancer cell proliferation” value (5.5 mM fructose) is listed as “virtually abolished; also recorded: almost completely abrogate”.

(Values after patent US8241607B2, “Use of fructose-based compounds for the diagnosis of cancer” (priority 2005, dated 2012).)
